Entries after “also recorded” stand apart in the source; their conditions may differ. Where two headings read alike, the source gives them in different places. Non-standard residues stand in square brackets, D forms with d. Residues, ends and D or L forms follow the SMILES beside them. *: point of attachment. Myristoyl = CCCCCCCCCCCCCC(=O)*
Legend:
ClbPpep = assay: In vitro cleavage of synthetic substrates by isolated peptidase domain, LC-MS detection; format: biochemical, E. coli
Protocol: (§1) The top graph of FIG. 2A depicts LC-MS detection of the prodrug scaffold ([M+H]^+: 343.2597 m/z) released by the hydrolysis of (1) by ClbP in vitro. Reactions were carried out in 50 mM Tris pH 8.0, 200 mM NaCl, 0.1 μM enzyme. 0.02% w/v DDM was added for all reactions involving full-length ClbP (Error bars are SD, n=3). The bottom graph of FIG. 2B depicts kinetic analysis of ClbP acting on synthetic precolibactin-mimic substrate (1). Note that this substrate is insoluble above 200 μM under assay conditions. Rates were calculated by quenching reactions in 1-minute intervals in methanol and quantifying the amount of substrate cleaved by derivatization of the L-alanine product with o-phthaldialdehye (OPA) and fluorescence detection (see Examples) (Error bars are SD, n=3). Substrate is insoluble above 200 μM under assay conditions. All kinetics experiments are averages of 3 independent replicates, reactions were carried out in 50 mM Sodium Phosphate pH 8.0, 200 mM NaCl, 0.02% w/v DDM, 0.1 μM enzyme. The bottom graph of FIG. 2B depicts the approach and substrates sampled in this SAR study. All kinetics experiments are averages of 3 independent replicates, reactions were carried out in 50 mM Sodium Phosphate pH 8.0, 200 mM NaCl, 0.02% w/v DDM, 0.1 μM ClbP-FL (full length) (also referred to herein as ClbPFL). All errors are ±SD.
(§2) Optical densities of E. coli cultures were determined with a DU 730 Life Sciences UV/Vis spectrophotometer (Beckman Coulter, Indianapolis, Ind.) by measuring absorbance at 600 nm. Ultracentrifugation was performed on a Beckman-Coulter Optima XE-90 Ultracentrifuge fitted with a type 45 Ti rotor in 70 mL polycarbonate tubes. Solvents and formic acid used for LC-MS were B & J Brand High Purity Solvents (Honeywell Research Chemicals). High-resolution LC-MS analyses of enzyme assays and synthetic compounds were performed on an Agilent 6530 Q-TOF Mass Spectrometer fitted with a dual-spray electrospray ionization (ESI) source. […] All experiments were performed in positive ion mode, and the masses detected corresponded to [M+H]+ ions unless otherwise noted. […]

ClbPFL-S95A = assay: In vitro cleavage of synthetic substrates by inactive mutant, LC-MS detection; format: biochemical, E. coli
Protocol: as §1, §2

ClbPFL = assay: In vitro kinetics assay with ClbPFL (o-phthaldialdehyde derivatization); format: biochemical, E. coli
Protocol: In vitro kinetics assays with ClbPFL (comparison of substrates 2, 3, and 4 using o-phthaldialdehyde derivatization): Assays were run in triplicate in 1.5 mL deep-well plates. ClbPFL-CHis10 was defrosted from −80° C. stocks on ice, then buffer exchanged into phosphate assay buffer using Zeba Spin 40K MWCO desalting columns (ThermoFisher Scientific). The enzyme was then diluted to 0.6 μM in phosphate assay buffer and 50 μL of this stock was deposited in the appropriate wells. The substrate of interest was prepared in a 2-fold dilution series in phosphate assay buffer. Reactions were initiated by the addition of 250 μL of substrate stock to each assay well to a final concentration of 0.1 μM ClbP, 12.5-200 μM substrate, 3% DMSO and incubated at 25° C. Reaction mixtures were pipetted briefly to mix. […] 50 μL of each supernatant from the quenched reactions and standard curves were then transferred to the appropriate wells, pipetted once to mix, and then fluorescence was immediately measured on a plate reader (Bio-Tek Synergy HTX multimode plate reader, measurement settings −360/40 nm excitation filter, 440/20 nm emission filter, detector gain: 35). Fluorescence was measured every 30 seconds for 10 minutes and the maximum value achieved for each well was used for calculations. […]

[1] = tested on: ClbPFL (full-length ClbP); assay: In vitro cleavage of synthetic substrates by ClbPFL, LC-MS detection; format: biochemical, E. coli; settings: for cleavage by ClbPFL in vitro: LC-MS detection of cleavage product
Protocol: as §1
Optical densities of E. coli cultures were determined with a DU 730 Life Sciences UV/Vis spectrophotometer (Beckman Coulter, Indianapolis, Ind.) by measuring absorbance at 600 nm. Ultracentrifugation was performed on a Beckman-Coulter Optima XE-90 Ultracentrifuge fitted with a type 45 Ti rotor in 70 mL polycarbonate tubes. Solvents and formic acid used for LC-MS were B & J Brand High Purity Solvents (Honeywell Research Chemicals). High-resolution LC-MS analyses of enzyme assays and synthetic compounds were performed on an Agilent 6530 Q-TOF Mass Spectrometer fitted with a dual-spray electrospray ionization (ESI) source. The capillary voltage was set to 3.5 kV, the fragmentor voltage to 175 V, the skimmer voltage to 65 V, and the Oct 1 RF to 750 V. The drying gas temperature was maintained at 275° C. with a flow rate of 8 L/min and a nebulizer pressure of 35 psi. A standard calibrant mix was introduced continuously during all experiments via the dual-spray ESI source. For analytical liquid chromatography, unless otherwise noted, experiments were performed using an Agilent Technologies 1200 series LC on a Hypersil GOLDaq™ C18 reverse phase column (50×3 mm, Thermo Scientific) with the following elution conditions: a gradient from 35% solvent A:65% solvent B to 100% solvent A over 5 minutes, holding at 100% A for 2 minutes, followed by a gradient back to 35% solvent A over 1 minute and holding at 35% solvent A for 3.5 minutes (solvent A: acetonitrile+0.1% formic acid; solvent B: water+0.1% formic acid; flow rate=0.4 mL/minute; injection volume=10 μL). All experiments were performed in positive ion mode, and the masses detected corresponded to [M+H]+ ions unless otherwise noted. Masses were found within 5 ppm of the expected [M+H]+ masses.
For all in vitro assays involving ClbPFL and ClbFL-S95A “Tris assay buffer” refers to a buffer composed of 50 mM Tris, 200 mM NaCl, 0.02% w/v DDM, pH 8.0. Likewise, “phosphate assay buffer” refers to 50 mM sodium phosphate, 200 mM NaCl, 0.02% w/v DDM, pH 8.0.

[2] = Solubility and membrane permeability as observed in the assays; format: physicochemical; settings: under assay conditions
[3] = tested on: COC(=O)[C@H](C)NC(=O)[C@@H](CC(N)=O)NC(=O)CCCc1ccccc1; assay: In vitro kinetics of ClbPFL-mediated cleavage of substrates, o-phthaldialdehyde (OPA) derivatization of L-alanine product with fluorescence detection (FIGS. 2B, 10, 11); format: biochemical, E. coli; settings: pH 8.0
Protocol: as §1
(§3) FIGS. 10A-10C depict the kinetics of ClbPFL-mediated cleavage of substrates (FIG. 10A) 2, (FIG. 10B) 3, and (FIG. 10C) 4. Each data point is an average of 3 biological replicates with error bars representing 1 SD. Solid lines are non-linear regression fits of data points to the Michaelis-Menten model.
(§4) FIG. 11 depicts the kinetic parameters for substrates 2, 3, and 4. […]
(§5) To determine the key features for substrate recognition by full-length ClbP, we undertook a structure-activity-relationship (SAR) focusing on three key regions of the substrate. […] Using a higher-throughput fluorescence derivatization assay, we determined kinetic parameters for several of these substrates (FIG. 2B). […]

[4] = tested on: CCCCCCCCCCCCCC(=O)N[C@H](CC(N)=O)C(=O)N[C@@H](C)C(=O)OC; assay: as above; format: biochemical, E. coli; settings: pH 8.0
Protocol: as §1, §3, §4, §5

[5] = tested on: CCCC(=O)N[C@H](CC(N)=O)C(=O)N[C@@H](C)C(=O)OC; assay: as above; format: biochemical, E. coli; settings: pH 8.0
Protocol: as §1, §3, §4, §5

[6] = tested on: CCCCCCCCCCCCCC(=O)N[C@H](CC(N)=O)C(=O)N[C@@H](C)CCC(=O)CC(=O)NC1(C(=O)O)CC1; assay: Kinetics of ClbPFL-mediated cleavage of substrates 1 and 2 (FIG. 8); format: biochemical, E. coli; settings: pH 8.0
Source text: (§6) FIG. 8 depicts the kinetics of ClbPFL-mediated cleavage of substrates 1 and 2. Each data point is an average of 3 biological replicates with error bars representing 1 SD. Solid lines are non-linear regression fits of data points to the Michaelis-Menten equation.
(§7) As used herein “ClbP” or “colibactin P” refers to a membrane bound periplasmic peptidase that cleaves an N-acyl-D-asparagine motif (the ‘prodrug scaffold’) from the N-terminus of precolibactin to liberate the active colibactin (FIG. 1). The sequences of ClbP are known in the art, e.g., the polypeptide sequence is available in the Uniprot database as accession number Q0P7K6 (SEQ ID NO: 1).
(§8) We obtained purified enzyme by separating the cell components using ultracentrifugation, solubilizing the membranes in an n-dodecyl-β-D-maltoside (DDM)-containing buffer, and per¬forming immobilized metal affinity chromatography. Because the structure of precolibactin has not yet been fully elucidated, we tested purified ClbPFL against a variety of synthetic precolibactin analogues. […] We chose substrate 2 for a more detailed structure—activity relationship (SAR) study. […]

[7] = tested on: CCCCCCCCCCCCCC(=O)N[C@H](CC(N)=O)C(=O)N[C@@H](C)C(=O)OC; assay: as above; format: biochemical, E. coli; settings: pH 8.0
Source text: as §6, §7, §8

| Molecule | cleavage by ClbPpep in vitro (ClbPpep) | cleavage by ClbPFL-S95A in vitro (ClbPFL-S95A) | kinetic parameters / hydrolysis efficiency compared with the reference substrate (ClbPFL) | cleavage by ClbPFL in vitro [1] | further results |
| --- | --- | --- | --- | --- | --- |
| CCCCCCCCCCCCCC(=O)N[C@H](CC(N)=O)C(=O)N[C@@H](C)CCC(=O)CC(=O)NC1(C(=O)O)CC1 [(1)] | no cleavage activity | no cleavage activity | comparable | rapidly in vitro | cleavage by ClbPpep in vitro (ClbPpep; listed as 2): no activity; also recorded: cannot process; cleavage by ClbPFL-S95A in vitro (ClbPFL-S95A; listed as 2): no activity; solubility limit [2]: ≤ 200 µM |
| CCCCCCCCCCCCCC(=O)N[C@H](CC(=O)O)C(=O)N[C@@H](C)C(=O)OC [(6)] (Myristoyl-[dD]-Ala-OMe) |  |  |  | cleaved in low amounts | amount cleaved by ClbPFL, fold less than (1) ([1]; LC-MS, relative to (1)): ~100 fold |
| CCCCCCCCCCCCCC(=O)N[C@@H](CC(N)=O)C(=O)N[C@@H](C)C(=O)OC [(7)] (Myristoyl-Asn-Ala-OMe) |  |  |  | no cleavage products were detected |  |
| CCCCCCCCCCCCCC(=O)N[C@H](CCC(N)=O)C(=O)N[C@@H](C)C(=O)OC [(8)] (Myristoyl-[dQ]-Ala-OMe) |  |  |  | no cleavage products were detected |  |
| CCCCCCCCCCCCCC(=O)N[C@H](CC(N)=O)C(=O)N[C@@H](C)CCC(=O)CC(=O)NC1(C(=O)O)CC1 [Compound 1] | no activity | no activity | comparable | rapidly in vitro |  |
| ClbPFL (full-length ClbP, ClbPFL-CHis10) (Escherichia coli) |  |  |  |  | Km [3]: 246 ± 70 µM; Km [4]: 130 ± 26 µM; Km [5]: 680 ± 470 µM; Km [6]: 16 ± 2 µM; Km [7]: 75 ± 23 µM |
